Test results as given in ChEMBL document CHEMBL5210307, “Affinity Biochemical Literature for EUbOPEN Chemogenomics Library wave 3” (2023).
pIC50, pKd: −log10 of the molar value.

Assays:
[1] = biological target: Fatty-acid amide hydrolase 1 (Homo sapiens, UniProt O00519); experiment: Affinity Biochemical interaction (Binding assay) EUB0000540a FAAH; parameters: mode of action Negative control for PF-04457845, recommended concentration 1 uM
[2] = biological target: Calcium/calmodulin-dependent protein kinase kinase 2 (Homo sapiens, UniProt Q96RR4); experiment: Affinity Biochemical interaction (Enzymatic activity assay) EUB0000168b CAMKK2; parameters: mode of action Negative control for SGC-CAMKK2-1 (UNC-YL-36), recommended concentration 1 uM
Calcium/calmodulin-dependent protein kinase kinase 2, sequence (Q96RR4 whole entry): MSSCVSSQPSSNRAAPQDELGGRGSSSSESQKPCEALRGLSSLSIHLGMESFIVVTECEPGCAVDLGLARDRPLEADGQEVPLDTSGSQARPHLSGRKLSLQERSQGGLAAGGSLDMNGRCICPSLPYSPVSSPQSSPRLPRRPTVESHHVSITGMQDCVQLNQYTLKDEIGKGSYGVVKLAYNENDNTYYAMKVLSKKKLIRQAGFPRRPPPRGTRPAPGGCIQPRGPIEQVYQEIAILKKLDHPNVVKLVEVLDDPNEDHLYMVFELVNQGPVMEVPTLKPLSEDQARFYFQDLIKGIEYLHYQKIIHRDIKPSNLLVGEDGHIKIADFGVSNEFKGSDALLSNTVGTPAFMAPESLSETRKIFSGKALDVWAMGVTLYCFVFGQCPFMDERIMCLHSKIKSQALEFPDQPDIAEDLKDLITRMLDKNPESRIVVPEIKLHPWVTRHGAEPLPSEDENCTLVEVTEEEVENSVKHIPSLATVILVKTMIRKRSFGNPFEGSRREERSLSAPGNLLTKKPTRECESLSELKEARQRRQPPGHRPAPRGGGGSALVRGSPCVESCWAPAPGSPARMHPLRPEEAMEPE

Protein AF-9 = biological target: T1, Protein AF-9 (Homo sapiens, UniProt P42568); experiment: Affinity Biochemical interaction (AlphaScreen assay) EUB0000283b MLLT3; parameters: mode of action Inhibitor, recommended concentration 1 uM
T1 sequence (P42568 whole entry): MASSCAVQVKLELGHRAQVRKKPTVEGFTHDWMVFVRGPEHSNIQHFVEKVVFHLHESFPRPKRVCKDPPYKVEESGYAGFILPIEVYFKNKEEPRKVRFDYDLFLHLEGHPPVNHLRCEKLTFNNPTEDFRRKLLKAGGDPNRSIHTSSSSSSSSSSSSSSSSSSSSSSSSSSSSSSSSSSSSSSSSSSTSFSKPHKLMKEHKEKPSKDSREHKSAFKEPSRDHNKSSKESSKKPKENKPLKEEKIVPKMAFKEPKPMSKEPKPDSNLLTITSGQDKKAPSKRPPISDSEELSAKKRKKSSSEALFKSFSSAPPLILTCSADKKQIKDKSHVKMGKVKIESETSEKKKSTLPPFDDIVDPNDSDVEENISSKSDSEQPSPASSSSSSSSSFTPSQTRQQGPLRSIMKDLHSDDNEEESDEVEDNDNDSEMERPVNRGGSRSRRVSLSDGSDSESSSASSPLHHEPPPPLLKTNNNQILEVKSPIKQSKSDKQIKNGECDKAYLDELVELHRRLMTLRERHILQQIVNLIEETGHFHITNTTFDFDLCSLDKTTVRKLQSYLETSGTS

Protein ENL = Protein ENL (Homo sapiens, UniProt Q03111); experiment: Affinity Biochemical interaction (AlphaScreen assay) EUB0000283b MLLT1; parameters: mode of action Inhibitor, recommended concentration 1 uM
[3] = biological target: T2, Protein farnesyltransferase subunit beta (Homo sapiens, UniProt P49356); experiment: Affinity Biochemical interaction (Scintillation proximity assay (SPA)) EUB0000736a FNTB; parameters: mode of action Negative control for ABT-100, recommended concentration 1 uM
T2 sequence (P49356 whole entry): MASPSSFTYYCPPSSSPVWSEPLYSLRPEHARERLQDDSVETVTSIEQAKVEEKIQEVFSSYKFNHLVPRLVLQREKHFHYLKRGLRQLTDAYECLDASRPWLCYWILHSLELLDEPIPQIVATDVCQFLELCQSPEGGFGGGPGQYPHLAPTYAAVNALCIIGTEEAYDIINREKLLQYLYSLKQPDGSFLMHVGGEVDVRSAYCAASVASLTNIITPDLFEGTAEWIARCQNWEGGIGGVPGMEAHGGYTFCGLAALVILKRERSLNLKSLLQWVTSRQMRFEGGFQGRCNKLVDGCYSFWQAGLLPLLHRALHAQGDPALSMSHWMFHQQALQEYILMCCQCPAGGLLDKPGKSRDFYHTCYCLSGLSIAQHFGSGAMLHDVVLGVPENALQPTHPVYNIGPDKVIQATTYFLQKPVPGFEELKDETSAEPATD

[4] = biological target: Transient receptor potential cation channel subfamily A member 1 (Homo sapiens, UniProt O75762); experiment: Affinity Biochemical interaction (FLIPR-based Ca2+ assay (activated by 30 µM AITC)) EUB0000547a TRPA1; parameters: mode of action Negative control for A-079, recommended concentration 1 uM
[5] = biological target: Histone acetyltransferase p300 (Homo sapiens, UniProt Q09472); experiment: Affinity Biochemical interaction (TR-FRET assay (BHC domains)) EUB0000326a EP300
[6] = biological target: T2, Protein farnesyltransferase subunit beta; experiment: Affinity Biochemical interaction (Scintillation proximity assay (SPA)) EUB0000289c FNTB; parameters: mode of action Inhibitor, recommended concentration 1 uM
Angiopoietin-1 receptor = Angiopoietin-1 receptor (Homo sapiens, UniProt Q02763); experiment: Affinity Biochemical interaction (KdELECT (DiscoverX)) EUB0000703a TEK; parameters: mode of action Negative control for BAY-826, recommended concentration 100 nM
[7] = biological target: Hepatocyte growth factor receptor (Homo sapiens, UniProt P08581); experiment: Affinity Biochemical interaction (Homogeneous Time Resolved Fluorescence Assay) EUB0000293b MET; parameters: mode of action Inhibitor, recommended concentration 1 uM
[8] = biological target: 5'-AMP-activated protein kinase catalytic subunit alpha-1 (Homo sapiens, UniProt Q13131); experiment: Affinity Biochemical interaction (Biochemical PRKAA1 assay (10 µM ATP)) EUB0000707a PRKAA1; parameters: mode of action Negative control for BAY-3827, recommended concentration 100 nM
5'-AMP-activated protein kinase catalytic subunit alpha-1, sequence (Q13131 whole entry): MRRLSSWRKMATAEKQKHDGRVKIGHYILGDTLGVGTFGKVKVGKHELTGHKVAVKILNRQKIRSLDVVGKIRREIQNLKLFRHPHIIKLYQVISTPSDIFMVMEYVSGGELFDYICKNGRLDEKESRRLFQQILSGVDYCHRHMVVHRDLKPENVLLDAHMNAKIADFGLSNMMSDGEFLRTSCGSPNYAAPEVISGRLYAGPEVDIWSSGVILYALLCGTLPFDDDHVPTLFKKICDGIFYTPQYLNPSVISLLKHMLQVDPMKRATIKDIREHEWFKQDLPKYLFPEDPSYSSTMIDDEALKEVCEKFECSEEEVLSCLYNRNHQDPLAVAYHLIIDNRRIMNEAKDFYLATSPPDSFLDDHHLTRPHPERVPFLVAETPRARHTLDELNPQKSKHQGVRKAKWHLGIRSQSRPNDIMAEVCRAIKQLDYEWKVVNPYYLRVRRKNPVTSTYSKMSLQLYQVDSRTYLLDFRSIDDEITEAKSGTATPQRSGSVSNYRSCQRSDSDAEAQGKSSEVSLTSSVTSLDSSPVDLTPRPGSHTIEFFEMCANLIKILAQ

[9] = biological target: Sodium/hydrogen exchanger 1 (Homo sapiens, UniProt P19634); experiment: Affinity Biochemical interaction (pHi change assay) EUB0000545a SLC9A1; parameters: mode of action Negative control for BI-9627, recommended concentration 1 uM
[10] = biological target: Bifunctional epoxide hydrolase 2 (Homo sapiens, UniProt P34913); experiment: Affinity Biochemical interaction (Human soluble epoxide hydrolase inhibition) EUB0000541a EPHX2; parameters: mode of action Negative control for BI-1935, recommended concentration 100 nM
Collagenase 3 = Collagenase 3 (Homo sapiens, UniProt P45452); experiment: Affinity Biochemical interaction (FRET assay) EUB0000727a MMP13; parameters: mode of action Negative control for BI-4394, recommended concentration 100 nM
Integrin alpha-L = Integrin alpha-L (Homo sapiens, UniProt P20701); experiment: Affinity Biochemical interaction (ITGAL binding assay (inhibition of LFA-1 binding to ICAM-1)) EUB0000549a ITGAL; parameters: mode of action Negative control for BI-1950, recommended concentration 100 nM
Integrin alpha-L, sequence (P20701 whole entry): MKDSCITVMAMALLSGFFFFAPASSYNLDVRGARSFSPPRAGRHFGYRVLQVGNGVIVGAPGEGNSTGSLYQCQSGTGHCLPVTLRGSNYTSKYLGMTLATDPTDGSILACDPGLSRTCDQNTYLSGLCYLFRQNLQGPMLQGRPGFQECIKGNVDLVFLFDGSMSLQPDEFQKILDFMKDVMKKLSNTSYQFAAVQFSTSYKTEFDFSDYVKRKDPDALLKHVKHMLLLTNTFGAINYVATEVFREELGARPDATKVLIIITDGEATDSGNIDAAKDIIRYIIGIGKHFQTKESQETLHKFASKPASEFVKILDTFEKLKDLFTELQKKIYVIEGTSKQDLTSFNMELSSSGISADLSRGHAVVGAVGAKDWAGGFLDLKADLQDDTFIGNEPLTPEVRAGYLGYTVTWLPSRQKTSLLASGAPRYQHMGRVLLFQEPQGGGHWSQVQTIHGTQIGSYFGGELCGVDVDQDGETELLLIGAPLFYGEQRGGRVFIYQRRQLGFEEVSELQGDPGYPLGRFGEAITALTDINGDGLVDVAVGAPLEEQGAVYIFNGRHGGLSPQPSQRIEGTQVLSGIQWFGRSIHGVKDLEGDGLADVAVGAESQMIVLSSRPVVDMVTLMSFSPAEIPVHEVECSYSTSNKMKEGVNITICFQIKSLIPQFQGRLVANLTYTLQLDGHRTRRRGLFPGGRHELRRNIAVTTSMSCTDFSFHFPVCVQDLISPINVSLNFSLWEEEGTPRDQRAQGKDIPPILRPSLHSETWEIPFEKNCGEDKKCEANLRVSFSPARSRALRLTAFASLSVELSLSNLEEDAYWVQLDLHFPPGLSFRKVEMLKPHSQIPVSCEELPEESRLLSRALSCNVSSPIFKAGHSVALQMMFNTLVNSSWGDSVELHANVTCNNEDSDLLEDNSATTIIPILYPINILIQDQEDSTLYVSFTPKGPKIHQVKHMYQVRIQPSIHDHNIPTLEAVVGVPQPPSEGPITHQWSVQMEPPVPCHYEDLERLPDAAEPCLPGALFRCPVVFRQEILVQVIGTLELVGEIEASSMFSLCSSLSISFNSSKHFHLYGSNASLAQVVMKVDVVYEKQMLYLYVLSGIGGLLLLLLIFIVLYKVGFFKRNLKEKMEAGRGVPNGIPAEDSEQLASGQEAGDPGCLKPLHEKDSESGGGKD

Fatty acid synthase = Fatty acid synthase (Homo sapiens, UniProt P49327); experiment: Affinity Biochemical interaction (Human FAS enzyme assay (measuring consumption of NADPH)) EUB0000738a FASN; parameters: mode of action Negative control for BI 99179, recommended concentration 1 uM
Cannabinoid receptor 1 = Cannabinoid receptor 1 (Homo sapiens, UniProt P21554); experiment: Affinity Biochemical interaction (Radioligand binding assay (CNR1, inverse agonism)) EUB0000316b CNR1; parameters: mode of action Negative control for MRL-650, recommended concentration 1 uM
Cannabinoid receptor 1, sequence (P21554 whole entry): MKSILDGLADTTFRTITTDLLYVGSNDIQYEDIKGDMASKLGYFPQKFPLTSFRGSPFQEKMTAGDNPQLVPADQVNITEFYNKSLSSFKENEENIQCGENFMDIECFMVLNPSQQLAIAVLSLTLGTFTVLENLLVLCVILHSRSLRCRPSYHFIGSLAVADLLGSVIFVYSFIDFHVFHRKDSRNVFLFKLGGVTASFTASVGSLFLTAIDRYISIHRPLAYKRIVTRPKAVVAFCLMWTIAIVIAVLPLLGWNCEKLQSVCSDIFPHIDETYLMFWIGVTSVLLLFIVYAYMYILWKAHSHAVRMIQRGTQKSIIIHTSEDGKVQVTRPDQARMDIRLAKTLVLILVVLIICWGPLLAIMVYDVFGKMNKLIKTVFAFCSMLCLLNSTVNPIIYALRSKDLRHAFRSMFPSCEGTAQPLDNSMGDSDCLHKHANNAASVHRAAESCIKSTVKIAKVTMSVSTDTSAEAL

[11] = biological target: Transient receptor potential cation channel subfamily M member 8 (Homo sapiens, UniProt Q7Z2W7); experiment: Affinity Biochemical interaction (Enzymatic assay) EUB0000546a TRPM8; parameters: mode of action Negative control for PF-05105679, recommended concentration 1 uM
Transient receptor potential cation channel subfamily M member 8, sequence (Q7Z2W7 whole entry): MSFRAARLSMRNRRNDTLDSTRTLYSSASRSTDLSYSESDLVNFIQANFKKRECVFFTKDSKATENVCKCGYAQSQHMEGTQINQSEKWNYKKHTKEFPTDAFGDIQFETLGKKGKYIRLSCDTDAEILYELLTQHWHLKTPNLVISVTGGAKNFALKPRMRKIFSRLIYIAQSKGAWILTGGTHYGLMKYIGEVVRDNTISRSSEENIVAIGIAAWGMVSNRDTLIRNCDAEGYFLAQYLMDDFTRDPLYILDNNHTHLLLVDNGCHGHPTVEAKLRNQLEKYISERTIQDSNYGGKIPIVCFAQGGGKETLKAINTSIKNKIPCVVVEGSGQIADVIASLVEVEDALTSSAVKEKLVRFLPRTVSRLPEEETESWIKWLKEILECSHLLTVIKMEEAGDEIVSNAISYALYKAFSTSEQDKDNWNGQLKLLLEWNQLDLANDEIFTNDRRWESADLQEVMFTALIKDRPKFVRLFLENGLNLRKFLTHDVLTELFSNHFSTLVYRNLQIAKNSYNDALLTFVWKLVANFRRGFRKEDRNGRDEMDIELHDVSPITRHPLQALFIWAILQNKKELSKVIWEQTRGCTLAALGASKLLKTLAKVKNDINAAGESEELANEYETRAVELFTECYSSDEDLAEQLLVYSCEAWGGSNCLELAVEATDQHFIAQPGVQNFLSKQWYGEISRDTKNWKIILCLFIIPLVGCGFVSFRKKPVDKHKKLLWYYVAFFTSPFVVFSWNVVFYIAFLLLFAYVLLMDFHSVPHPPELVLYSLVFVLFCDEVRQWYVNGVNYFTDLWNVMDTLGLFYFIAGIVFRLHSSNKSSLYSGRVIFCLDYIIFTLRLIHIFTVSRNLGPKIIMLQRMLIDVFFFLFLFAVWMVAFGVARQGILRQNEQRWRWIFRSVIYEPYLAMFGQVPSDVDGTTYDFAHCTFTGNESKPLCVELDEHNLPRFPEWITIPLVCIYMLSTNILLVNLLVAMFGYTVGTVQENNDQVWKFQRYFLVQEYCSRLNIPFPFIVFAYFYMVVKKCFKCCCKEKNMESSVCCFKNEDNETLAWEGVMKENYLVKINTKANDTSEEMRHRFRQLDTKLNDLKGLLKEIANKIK

Fatty-acid amide hydrolase 1, sequence (O00519 whole entry): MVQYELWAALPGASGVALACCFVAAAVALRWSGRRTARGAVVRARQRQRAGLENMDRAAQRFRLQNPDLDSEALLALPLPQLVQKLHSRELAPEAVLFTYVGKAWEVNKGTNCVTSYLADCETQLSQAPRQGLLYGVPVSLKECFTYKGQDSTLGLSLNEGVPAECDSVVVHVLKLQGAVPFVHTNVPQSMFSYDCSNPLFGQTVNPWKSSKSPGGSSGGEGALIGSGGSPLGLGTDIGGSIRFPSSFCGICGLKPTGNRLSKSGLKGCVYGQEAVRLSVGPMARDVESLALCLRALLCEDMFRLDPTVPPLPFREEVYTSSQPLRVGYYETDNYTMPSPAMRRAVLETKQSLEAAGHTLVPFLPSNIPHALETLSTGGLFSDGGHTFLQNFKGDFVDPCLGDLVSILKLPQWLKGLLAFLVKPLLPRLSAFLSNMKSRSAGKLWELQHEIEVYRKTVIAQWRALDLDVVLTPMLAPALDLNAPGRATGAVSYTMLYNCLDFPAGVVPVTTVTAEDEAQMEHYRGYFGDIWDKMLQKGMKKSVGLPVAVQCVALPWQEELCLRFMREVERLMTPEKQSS

In the case of `O=C(Nc1cccnn1)N1CC(C/C=C/c2cncc(Oc3ccc(C(F)(F)F)cn3)n2)C1`, the pIC50 [1] was less than 4.00.

`O=C(O)c1ccc(-c2coc3ncc(-c4ccccc4)cc23)cc1Cl` showed a pIC50 [2] of less than 4.57.

Work on `C[C@H]1CCCN1Cc1nc2cc(NC(=O)c3ccc4cnccc4c3)ccc2[nH]1` yielded a pIC50 (Protein AF-9) of 6.60 and a pIC50 (Protein ENL) of 6.82.

For `Cn1cncc1[C@@](O)(COc1ccc(C#N)cc1-c1ccc(OC(F)(F)F)cc1)c1ccc(C#N)cc1` [A-108], the pIC50 [3] was less than 4.00.

Work on `CCC(=N\O)/C(C)=C/c1ccc(F)c(C)c1` [A-226] yielded a pIC50 [4] of less than 4.00.

`CNC(=O)Nc1ccc2c(c1)[C@@]1(CC2)OC(=O)N(CC(=O)N(Cc2ccc(F)cc2)[C@@H](C)C(F)(F)F)C1=O` [A-486] showed a pIC50 [5] of less than 5.00.

Work on `Cn1cncc1[C@](O)(COc1ccc(C#N)cc1-c1ccc(OC(F)(F)F)cc1)c1ccc(C#N)cc1` [ABT-100] yielded a pIC50 [6] of 10.30.

With `Cc1cc(NC(=O)c2cccc(S(F)(F)(F)(F)F)c2)cc(-n2ccn3nc(-c4cccnc4)cc23)c1` [BAY-309] the pKd (Angiopoietin-1 receptor) was less than 4.70.

With `CC1=C(C#N)C(c2ccc3[nH]nc(C)c3c2)C(C#N)=C(C)N1` [BAY-474] the pIC50 [7] was greater than 9.00.

In the case of `CC1=C(C#N)C(c2ccc3c(c2)c(NC(=O)c2ccccc2C)nn3C)C(C#N)=C(C)N1` [BAY-974], the pIC50 [8] was less than 4.70.

In the case of `CC(=O)N1CCC(c2ccc(C(=O)NC3=NCCN3)cc2C(F)(F)F)CC1` [BI 0054], the pIC50 [9] was less than 5.00.

With `O=C(Nc1ccc(-n2nc(-c3cccnc3)cc2C(F)(F)F)cn1)c1ccc(-c2ccccc2)c(F)c1` [BI 2049] the pIC50 [10] was less than 5.52.

`Cn1nc(C(=O)NCc2ccc(C(=O)O)cc2)cc1-c1ccc2[nH]ccc2c1` [BI 4395] showed a pIC50 (Collagenase 3) of less than 4.59.

`C[C@@]1(Cc2ccc(C#N)cc2)C(=O)N(c2cc(Cl)cc(Cl)c2)c2ncc(C(=O)NC3(c4nc(C5CCC5)no4)CC3)n21` [BI 9446] gave a pKd (Integrin alpha-L) of less than 6.00.

`CCC(=O)N[C@@H]1CC[C@H](C(=O)N(C)c2ccc(-c3nc4ccccc4o3)cc2)C1` [BI 99990] showed a pIC50 (Fatty acid synthase) of less than 5.52.

With `CC(=O)c1c(NS(C)(=O)=O)c2cc(-c3ccc(Cl)cc3)c(-c3ccc(Cl)cc3Cl)nc2n(C)c1=O` [MRL-CB1-NC] the pIC50 (Cannabinoid receptor 1) was 7.49.

`C[C@H](c1ccc(F)cc1)N(Cc1ccc(Cl)c(C(=O)O)c1)C(=O)c1cnc2ccccc2c1` [PF-05257137] was tested, and the pIC50 [11] was less than 5.00.
